Measurements taken from patent publication US8906928B2, “Substituted pyrazolo-pyrrolo-pyridine-dione compounds” (ArQule, Inc., priority 2009, dated 2014).

What was measured:
Format in all cases: cell-based
Kato III = assay: MTS assay (cell growth inhibition), Kato III; details: Kato III cells, 72 hours incubation with test compound; concentration not given
Experimental: (§1) Cells were maintained at 37° C., 5% CO2 in DMEM media supplemented with 1% fetal bovine serum, penicillin/streptomycin and fungizone (Invitrogen). Cells were seeded into 96-well tissue culture plates at 3000 per well and cultured at 37° C. for 18 hours. Test compounds were dissolved and diluted to 300× in DMSO then diluted 1:40 in DMEM. Cells were incubated with test compounds for 72 hours followed by incubation with tetrazolium compound (3-(4,5-dimethylthiazol-2-yl)-5-(3-carboxymethoxyphenyl)-2-(4-sulfophenyl)-2H-tetrazolium, inner salt; MTS) and the electron coupling reagent, phenazine methosulfate (PMS) for 4 hours. […] The ability of compounds to inhibit cell growth in this assay is correlated with the reduction of dehydrogenase enzyme activity found in metabolically active cells. The measurement of the absorbance of the formazan was assessed using an ENVISION™ (Perkin Elmer) microplate reader at 492 nm. The calculated IC50 value is the concentration of the test compound that causes a 50% decrease in the absorbance.

MDA-MB = assay: MTS assay (cell growth inhibition), MDA-MB; details: MDA-MB cells, 72 hours incubation with test compound; concentration not given
Experimental: as §1

PACA-2 = assay: MTS assay (cell growth inhibition), PACA-2; details: PACA-2 cells, 72 hours incubation with test compound; concentration not given
Experimental: as §1

PC-3 = assay: MTS assay (cell growth inhibition), PC-3; details: PC-3 cells, 72 hours incubation with test compound; concentration not given
Experimental: as §1

NCI-H1299 = assay: MTS assay (cell growth inhibition), NCI-H1299; details: NCI-H1299 cells, 72 hours incubation with test compound; concentration not given
Experimental: as §1

DLD-1 = assay: MTS assay (cell growth inhibition), DLD-1; details: DLD-1 cells, 72 hours incubation with test compound; concentration not given
Experimental: as §1

Row | SMILES | MTS CELL KILL DATA (% INHIBITION) Kato III (Kato III) | MTS CELL KILL DATA (% INHIBITION) MDA-MB (MDA-MB) | MTS CELL KILL DATA (% INHIBITION) PACA-2 (PACA-2) | MTS CELL KILL DATA (% INHIBITION) PC-3 (PC-3) | MTS CELL KILL DATA (% INHIBITION) NCI-H1299 (NCI-H1299) | MTS CELL KILL DATA (% INHIBITION) DLD-1 (DLD-1)
1 | Cc1ccc2c(c1)N(CCN1C(=O)c3cnc4[nH]ncc4c3C1=O)C(C)(C)CC2C (stereo not drawn) [Example 29, 7-[2-(2,2,4,7-tetramethyl-3,4-dihydroquinolin-1(2H)-yl)ethyl]pyrazolo[3,4-b]pyrrolo[3,4-d]pyridine-6,8(3H,7H)-dione] | C (C = <50% INHIBITION) | A (A = 80-100% INHIBITION) | A (A = 80-100% INHIBITION) | A (A = 80-100% INHIBITION) | C (C = <50% INHIBITION) | C (C = <50% INHIBITION)
2 | CC(=O)Nc1cccc(-c2n[nH]c3ncc4c(c23)C(=O)N(CCc2ccccc2)C4=O)c1 [Example 167, N-{3-[6,8-dioxo-7-(2-phenylethyl)-3,6,7,8-tetrahydropyrazolo[3,4-b]pyrrolo[3,4-d]pyridin-1-yl]phenyl}acetamide] | A (A = 80-100% INHIBITION) | A (A = 80-100% INHIBITION) | A (A = 80-100% INHIBITION) | A (A = 80-100% INHIBITION) | A (A = 80-100% INHIBITION) | A (A = 80-100% INHIBITION)
3 | Cc1cccc(CCN2C(=O)c3cnc4[nH]ncc4c3C2=O)c1 [Example 86, 7-[2-(3-methylphenyl)ethyl]pyrazolo[3,4-b]pyrrolo[3,4-d]pyridine-6,8(3H,7H)-dione] | A (A = 80-100% INHIBITION) | A (A = 80-100% INHIBITION) | C (C = <50% INHIBITION) | A (A = 80-100% INHIBITION) | C (C = <50% INHIBITION) | C (C = <50% INHIBITION)
4 | O=C1c2cnc3[nH]nc(-c4ccc(F)c(F)c4)c3c2C(=O)N1CCc1ccccc1 [Example 162, 1-(3,4-difluorophenyl)-7-(2-phenylethyl)pyrazolo[3,4-b]pyrrolo[3,4-d]pyridine-6,8(3H,7H)-dione] | C (C = <50% INHIBITION) | C (C = <50% INHIBITION) | B (B = 50-79% INHIBITION) | C (C = <50% INHIBITION) | C (C = <50% INHIBITION) | C (C = <50% INHIBITION)
5 | O=C1c2cnc3[nH]ncc3c2C(=O)N1Cc1cccc(Br)c1 [Example 104, 7-(3-bromobenzyl)pyrazolo[3,4-b]pyrrolo[3,4-d]pyridine-6,8(3H ,7H)-dione] | A (A = 80-100% INHIBITION) | A (A = 80-100% INHIBITION) | A (A = 80-100% INHIBITION) | A (A = 80-100% INHIBITION) | A (A = 80-100% INHIBITION) | A (A = 80-100% INHIBITION)
6 | O=C1c2cnc3[nH]ncc3c2C(=O)N1CC1CCCO1 (stereo not drawn) [Example 107, 7-(tetrahydrofuran-2-ylmethyl)pyrazolo[3,4-b]pyrrolo[3,4-d]pyridine-6,8(3H,7H)-dione] | C (C = <50% INHIBITION) | B (B = 50-79% INHIBITION) | C (C = <50% INHIBITION) | B (B = 50-79% INHIBITION) | C (C = <50% INHIBITION) | C (C = <50% INHIBITION)
7 | O=C1c2cnc3[nH]ncc3c2C(=O)N1Cc1cccc(I)c1 [Example 101, 7-(3-iodobenzyl)pyrazolo[3,4-b]pyrrolo[3,4-d]pyridine-6,8(3H,7H)-dione] | A (A = 80-100% INHIBITION) | A (A = 80-100% INHIBITION) | C (C = <50% INHIBITION) | A (A = 80-100% INHIBITION) | C (C = <50% INHIBITION) | B (B = 50-79% INHIBITION)
8 | O=C1c2cnc3[nH]ncc3c2C(=O)N1Cc1c(F)ccc(Cl)c1Cl [Example 97, 7-(2,3-dichloro-6-fluorobenzyl)pyrazolo[3,4-b]pyrrolo[3,4-d]pyridine-6,8(3H,7H)-dione] | C (C = <50% INHIBITION) | C (C = <50% INHIBITION) | C (C = <50% INHIBITION) | C (C = <50% INHIBITION) | C (C = <50% INHIBITION) | C (C = <50% INHIBITION)
9 | O=C1c2cnc3[nH]ncc3c2C(=O)N1CC1CCC1 [Example 76, 7-(cyclobutylmethyl)pyrazolo[3,4-b]pyrrolo[3,4-d]pyridine-6,8(3H,7H)-dione] | C (C = <50% INHIBITION) | C (C = <50% INHIBITION) | C (C = <50% INHIBITION) | C (C = <50% INHIBITION) | C (C = <50% INHIBITION) | C (C = <50% INHIBITION)
10 | O=C1c2cnc3[nH]ncc3c2C(=O)N1Cc1c(F)ccc(F)c1Cl [Example 48, 7-(2-chloro-3,6-difluorobenzyl)pyrazolo[3,4-b]pyrrolo[3,4-d]pyridine-6,8(3H,7H)-dione] | B (B = 50-79% INHIBITION) | A (A = 80-100% INHIBITION) | B (B = 50-79% INHIBITION) | C (C = <50% INHIBITION) | C (C = <50% INHIBITION) | C (C = <50% INHIBITION)
11 | O=C1c2cnc3[nH]ncc3c2C(=O)N1Cc1ccc(Cl)c(C(F)(F)F)c1 [Example 136, 7-[4-chloro-3-(trifluoromethyl)benzyl]pyrazolo[3,4-b]pyrrolo[3,4-d]pyridine-6,8(3H,7H)-dione] | C (C = <50% INHIBITION) | C (C = <50% INHIBITION) | C (C = <50% INHIBITION) | C (C = <50% INHIBITION) | C (C = <50% INHIBITION) | C (C = <50% INHIBITION)
